The record followed here is ChEMBL document CHEMBL1153283, “Synthesis and application of MeOSuc-Ala-Ala-Pro-Phe-CH2Cl as potent proteinase K inhibitor” (Bioorg Med Chem Lett, 2009).

The source made the active and inactive calls. The rule behind the calls is not given here.

A short description of experiment [1]: Inhibition of proteinase K at […] by RT-PCR.
Experiment [2] in a line: Inhibition of proteinase K at 1 mM by RT-PCR.
Experiment [3] is described as follows: Inhibition of proteinase K at 0.125 mM by independent digestion assay in presence of BSA.
A short description of experiment [4]: Inhibition of proteinase K at 0.05 mM by RT-PCR.
The nature of experiment [5]: Inhibition of proteinase K at 0.25 mM by independent digestion assay in presence of BSA.

Consider `COC(=O)CCC(=O)N[C@H](C)C(=O)N[C@@H](C)C(=O)N1CCC[C@H]1C(=O)N[C@H](C(=O)CCl)C(C)C`, for which the result in experiment [1], in experiment [2] and in experiment [3] was Active.

For `COC(=O)CCC(=O)N[C@H](C)C(=O)N[C@@H](C)C(=O)N1CCC[C@H]1C(=O)N[C@@H](Cc1ccccc1)C(=O)CCl`, the outcome in experiment [4] and in experiment [5] was Active.
